The conditions of the data set: 1.0% DMSO, 24-hour incubation at ambient temperature, maximum theoretical 100 μM; for pH 2 solubility: 0.1N HCl, first value of the cell; for pH 7 solubility: 1×PBS buffer (pH 7.4), second value of the cell.

Consider `C[C@@H](CC(=O)O)OC(=O)N(c1nn(CC(F)(F)F)c2c(-c3ccc(C#CC(C)(C)S(C)(=O)=O)nc3[C@H](Cc3cc(F)cc(F)c3)NC(=O)Cn3nc(C(F)(F)F)c4c3C(F)(F)[C@@H]3C[C@H]43)ccc(Cl)c12)S(C)(=O)=O` [Compound 120, (S)-3-(((4-chloro-7-(2-((S)-1-(2-((3bS,4aR)-5,5-difluoro-3-(trifluoromethyl)-3b,4,4a,5-tetrahydro-1H-cyclopropa[3,4]cyclopenta[1,2-c]pyrazol-1-yl)acetamido)-2-(3,5-difluorophenyl)ethyl)-6-(3-methyl-3-(methylsulfonyl)but-1-yn-1-yl)pyridin-3-yl)-1-(2,2,2-trifluoroethyl)-1H-indazol-3-yl)(methylsulfonyl)carbamoyl)oxy)butanoic acid], for which the “pH 2 solubility” value was determined as 1 μM and the “pH 7 solubility” value worked out at 9 μM.

Turning to `C[C@@H](CNC(=O)N(c1nn(CC(F)(F)F)c2c(-c3ccc(C#CC(C)(C)S(C)(=O)=O)nc3[C@H](Cc3cc(F)cc(F)c3)NC(=O)Cn3nc(C(F)(F)F)c4c3C(F)(F)[C@@H]3C[C@H]43)ccc(Cl)c12)S(C)(=O)=O)OP(=O)(O)O` [Compound 35, (S)-1-(3-(4-chloro-7-(2-((S)-1-(2-((3bS,4aR)-5,5-difluoro-3-(trifluoromethyl)-3b,4,4a,5-tetrahydro-1H-cyclopropa[3,4]cyclopenta[1,2-c]pyrazol-1-yl)acetamido)-2-(3,5-difluorophenyl)ethyl)-6-(3-methyl-3-(methylsulfonyl)but-1-yn-1-yl)pyridin-3-yl)-1-(2,2,2-trifluoroethyl)-1H-indazol-3-yl)-3-(methylsulfonyl)ureido)propan-2-yl dihydrogen phosphate], the “pH 2 solubility” value was 1 μM and the “pH 7 solubility” value was 14 μM.

As to `CC(C)(C#Cc1ccc(-c2ccc(Cl)c3c(N(C(=O)NCCO)S(C)(=O)=O)nn(CC(F)(F)F)c23)c([C@H](Cc2cc(F)cc(F)c2)NC(=O)Cn2nc(C(F)(F)F)c3c2C(F)(F)[C@@H]2C[C@H]32)n1)S(C)(=O)=O` [Compound 40, N—((S)-1-(3-(4-chloro-3-(N-((2-hydroxyethyl)carbamoyl)methylsulfonamido)-1-(2,2,2-trifluoroethyl)-1H-indazol-7-yl)-6-(3-methyl-3-(methylsulfonyl)but-1-yn-1-yl)pyridin-2-yl)-2-(3,5-difluorophenyl)ethyl)-2-((3bS,4aR)-5,5-difluoro-3-(trifluoromethyl)-3b,4,4a,5-tetrahydro-1H-cyclopropa[3,4]cyclopenta[1,2-c]pyrazol-1-yl)acetamide], the “pH 2 solubility” value is reported as 1 μM and the “pH 7 solubility” value was determined as 2 μM.

As for `CCOC(=O)C(=O)N(c1nn(CC(F)(F)F)c2c(-c3ccc(C#CC(C)(C)S(C)(=O)=O)nc3[C@H](Cc3cc(F)cc(F)c3)NC(=O)Cn3nc(C(F)(F)F)c4c3C(F)(F)[C@@H]3C[C@H]43)ccc(Cl)c12)S(C)(=O)=O` [Compound 14, ethyl 2-(N-(4-chloro-7-(2-((S)-1-(2-((3bS,4aR)-5,5-difluoro-3-(trifluoromethyl)-3b,4,4a,5-tetrahydro-1H-cyclopropa[3,4]cyclopenta[1,2-c]pyrazol-1-yl)acetamido)-2-(3,5-difluorophenyl)ethyl)-6-(3-methyl-3-(methylsulfonyl)but-1-yn-1-yl)pyridin-3-yl)-1-(2,2,2-trifluoroethyl)-1H-indazol-3-yl)methylsulfonamido)-2-oxoacetate], the “pH 2 solubility” value was 1/1 μM and the “pH 7 solubility” value is 1/1 μM.

As for `CC(C)(C#Cc1ccc(-c2ccc(Cl)c3c(N(C(=O)NC(COP(=O)(O)O)COP(=O)(O)O)S(C)(=O)=O)nn(CC(F)(F)F)c23)c([C@H](Cc2cc(F)cc(F)c2)NC(=O)Cn2nc(C(F)(F)F)c3c2C(F)(F)[C@@H]2C[C@H]32)n1)S(C)(=O)=O` [Compound 38, 2-(3-(4-chloro-7-(2-((S)-1-(2-((3bS,4aR)-5,5-difluoro-3-(trifluoromethyl)-3b,4,4a,5-tetrahydro-1H-cyclopropa[3,4]cyclopenta[1,2-c]pyrazol-1-yl)acetamido)-2-(3,5-difluorophenyl)ethyl)-6-(3-methyl-3-(methylsulfonyl)but-1-yn-1-yl)pyridin-3-yl)-1-(2,2,2-trifluoroethyl)-1H-indazol-3-yl)-3-(methylsulfonyl)ureido)propane-1,3-diyl bis(dihydrogen phosphate)], the “pH 2 solubility” value turned out to be 10 μM and the “pH 7 solubility” value is listed as 16 μM.

Consider `CC(C)(C#Cc1ccc(-c2ccc(Cl)c3c(N(C(=O)N(CC(=O)O)CC(=O)O)S(C)(=O)=O)nn(CC(F)(F)F)c23)c([C@H](Cc2cc(F)cc(F)c2)NC(=O)Cn2nc(C(F)(F)F)c3c2C(F)(F)[C@@H]2C[C@H]32)n1)S(C)(=O)=O` [Compound 78, 2,2′-(((4-chloro-7-(2-((S)-1-(2-((3bS,4aR)-5,5-difluoro-3-(trifluoromethyl)-3b,4,4a,5-tetrahydro-1H-cyclopropa[3,4]cyclopenta[1,2-c]pyrazol-1-yl)acetamido)-2-(3,5-difluorophenyl)ethyl)-6-(3-methyl-3-(methylsulfonyl)but-1-yn-1-yl)pyridin-3-yl)-1-(2,2,2-trifluoroethyl)-1H-indazol-3-yl)(methylsulfonyl)carbamoyl)azanediyl)diacetic acid], for which the “pH 2 solubility” value was 14 μM and the “pH 7 solubility” value amounted to 22 μM.

Take `CC(C)(C#Cc1ccc(-c2ccc(Cl)c3c(N(CCO)S(C)(=O)=O)nn(CC(F)(F)F)c23)c([C@H](Cc2cc(F)cc(F)c2)NC(=O)Cn2nc(C(F)(F)F)c3c2C(F)(F)[C@@H]2C[C@H]32)n1)S(C)(=O)=O` [Compound 18, N—((S)-1-(3-(4-chloro-3-(N-(2-hydroxyethyl)methylsulfonamido)-1-(2,2,2-trifluoroethyl)-1H-indazol-7-yl)-6-(3-methyl-3-(methylsulfonyl)but-1-yn-1-yl)pyridin-2-yl)-2-(3,5-difluorophenyl)ethyl)-2-((3bS,4aR)-5,5-difluoro-3-(trifluoromethyl)-3b,4,4a,5-tetrahydro-1H-cyclopropa[3,4]cyclopenta[1,2-c]pyrazol-1-yl)acetamide]: the “pH 2 solubility” value is on record as 1/1 μM and the “pH 7 solubility” value is given as 1/1 μM.

In the case of `C[C@@H](OC(=O)N(c1nn(CC(F)(F)F)c2c(-c3ccc(C#CC(C)(C)S(C)(=O)=O)nc3[C@H](Cc3cc(F)cc(F)c3)NC(=O)Cn3nc(C(F)(F)F)c4c3C(F)(F)[C@@H]3C[C@H]43)ccc(Cl)c12)S(C)(=O)=O)C(=O)O` [Compound 116, (R)-2-(((4-chloro-7-(2-((S)-1-(2-((3bS,4aR)-5,5-difluoro-3-(trifluoromethyl)-3b,4,4a,5-tetrahydro-1H-cyclopropa[3,4]cyclopenta[1,2-c]pyrazol-1-yl)acetamido)-2-(3,5-difluorophenyl)ethyl)-6-(3-methyl-3-(methylsulfonyl)but-1-yn-1-yl)pyridin-3-yl)-1-(2,2,2-trifluoroethyl)-1H-indazol-3-yl)(methylsulfonyl)carbamoyl)oxy)propanoic acid], the “pH 2 solubility” value is 1/1 μM and the “pH 7 solubility” value was 1/1 μM.

For the compound `CC(C)(C#Cc1ccc(-c2ccc(Cl)c3c(N(C(=O)O[C@H]4C[C@@H](NC(=N)N)C4)S(C)(=O)=O)nn(CC(F)(F)F)c23)c([C@H](Cc2cc(F)cc(F)c2)NC(=O)Cn2nc(C(F)(F)F)c3c2C(F)(F)[C@@H]2C[C@H]32)n1)S(C)(=O)=O` [Compound 127, cis-3-guanidinocyclobutyl (4-chloro-7-(2-((S)-1-(2-((3bS,4aR)-5,5-difluoro-3-(trifluoromethyl)-3b,4,4a,5-tetrahydro-1H-cyclopropa[3,4]cyclopenta[1,2-c]pyrazol-1-yl)acetamido)-2-(3,5-difluorophenyl)ethyl)-6-(3-methyl-3-(methylsulfonyl)but-1-yn-1-yl)pyridin-3-yl)-1-(2,2,2-trifluoroethyl)-1H-indazol-3-yl)(methylsulfonyl)carbamate], the “pH 2 solubility” value was found to be 8 μM and the “pH 7 solubility” value is listed as 1 μM.

With `CC(C)(C#Cc1ccc(-c2ccc(Cl)c3c(N(C(=O)OCCN4CCOCC4)S(C)(=O)=O)nn(CC(F)(F)F)c23)c([C@H](Cc2cc(F)cc(F)c2)NC(=O)Cn2nc(C(F)(F)F)c3c2C(F)(F)[C@@H]2C[C@H]32)n1)S(C)(=O)=O` [Compound 114, 2-morpholinoethyl (4-chloro-7-(2-((S)-1-(2-((3bS,4aR)-5,5-difluoro-3-(trifluoromethyl)-3b,4,4a,5-tetrahydro-1H-cyclopropa[3,4]cyclopenta[1,2-c]pyrazol-1-yl)acetamido)-2-(3,5-difluorophenyl)ethyl)-6-(3-methyl-3-(methylsulfonyl)but-1-yn-1-yl)pyridin-3-yl)-1-(2,2,2-trifluoroethyl)-1H-indazol-3-yl)(methylsulfonyl)carbamate], the “pH 2 solubility” value amounted to 24 μM and the “pH 7 solubility” value was 1 μM.

Take `CC(C)(C#Cc1ccc(-c2ccc(Cl)c3c(N(C(=O)NC(COC(=O)C(=O)O)COC(=O)C(=O)O)S(C)(=O)=O)nn(CC(F)(F)F)c23)c([C@H](Cc2cc(F)cc(F)c2)NC(=O)Cn2nc(C(F)(F)F)c3c2C(F)(F)[C@@H]2C[C@H]32)n1)S(C)(=O)=O` [Compound 37, 2,2′-((2-(3-(4-chloro-7-(2-((S)-1-(2-((3bS,4aR)-5,5-difluoro-3-(trifluoromethyl)-3b,4,4a,5-tetrahydro-1H-cyclopropa[3,4]cyclopenta[1,2-c]pyrazol-1-yl)acetamido)-2-(3,5-difluorophenyl)ethyl)-6-(3-methyl-3-(methylsulfonyl)but-1-yn-1-yl)pyridin-3-yl)-1-(2,2,2-trifluoroethyl)-1H-indazol-3-yl)-3-(methylsulfonyl)ureido)propane-1,3-diyl)bis(oxy))bis(2-oxoacetic acid)]: the “pH 2 solubility” value is on record as 3 μM and the “pH 7 solubility” value turned out to be 18 μM.

The values above are taken from patent publication US12404262B2 (priority 2021, dated 2025).
